Laboratory results published in patent US20110077272A1, “PULMONARY FORMULATIONS OF TRIPTANS” (Vectura Limited, priority 2008, published 2011).

Tests used:
[1] = Solubility in ethanol-based HFA 134a pMDI formulations; type: physicochemical
[2] = Preclinical pulmonary administration of sumatriptan, irritancy to the airways; type: in vivo
[3] = intranasal route (Duquesnoy et al 1998); cited from earlier work

| SMILES | solubility [1] | respiratory changes ([2]; 1.9 mg/kg) | respiratory changes ([2]; 9 mg/kg) | coefficient of variation for Tmax [3] [%] |
| --- | --- | --- | --- | --- |
| CNS(=O)(=O)Cc1ccc2[nH]cc(CCN(C)C)c2c1 [sumatriptan succinate] | low solubility | – | – | – |
| CNS(=O)(=O)Cc1ccc2[nH]cc(CCN(C)C)c2c1 [sumatriptan] | – | not of degenerative nature | degeneration occurred | 62.8 |
